Values belong to the compound of their own block, whether it stands above or below them. Square brackets hold non-standard residues; d marks the D form. Ends that are not written are not given here. Peptide text beside a SMILES is read from it. pT = C[C@@H](OP(=O)(O)O)[C@H](N)C(=O)O; pS = N[C@@H](COP(=O)(O)O)C(=O)O
Assays:
APC/C^Cdc20 = APC/C^Cdc20 inhibition by MCC components (securin ubiquitination assay); type: biochemical, Xenopus APC/C, human Cdc20; conditions: BubR1^N and Cdc20^ΔN60, no Bub1^ΔK–Bub3, Mad1^E–Mad2, Cdk1 or Mps1
Bub1^ΔK–Bub3 = assay: in vitro kinase assay on recombinant Bub1^ΔK–Bub3; type: biochemical, human; conditions: 400 nM Bub1^ΔK–Bub3, 50 nM Cdk1–Cyclin B1 or 500 nM Mps1, 1 mM ATP, room temperature, 30 min; blot
Method: For kinase assays, 1 μM Cdc20^ΔN60, 40 μM Mad1^E–Mad2, or 400 nM Bub1^ΔK–Bub3 was incubated with 40 nM Bub1, 500 nM Mps1, and/or 50 nM Cdk1–Cyclin B1 at room temperature for 30 min in the kinase buffer (25 mM Tris-HCl, pH 7.7, 100 mM NaCl, 10 mM MgCl2, 5 mM NaF, 20 mM β-glycerophosphate, 0.1 mM Na3VO4 and 1 mM DTT) supplemented with 1 mM ATP. The reaction mixtures were stopped with the appropriate kinase inhibitors for further protein-binding assays, or quenched with the SDS loading buffer and analyzed by Coomassie blue staining or Western blotting.

HeLa cells = assay: mitotic arrest by Mis12–Mad1 fusion proteins (mitotic index); type: cell-based, human; conditions: no spindle poison
Method: Internal deletion mutants were constructed with overlapping extension polymerase chain reaction (PCR). Point mutations were introduced with QuikChange Lightening Site-Directed Mutagenesis kit (Agilent Technologies, Santa Clara, CA). All plasmids were verified by sequencing. Plasmid transfection was performed with the Effectene reagent (Qiagen, German Town, MD) according to the manufacturer’s instructions.
[…] For Plk1 inhibition, BI 2536 was added 1 hr prior to harvest. Collected cells were washed with PBS and fixed with pre-chilled 70% ethanol at −20°C overnight. After being washed with PBS, the fixed cells were permeabilized with 0.2% Triton X-100 in PBS for 20 min. Cells were then incubated with the anti-MPM2 antibody (1:100, Millipore) in PBS containing 1% BSA for 2 hr. After being washed with PBS, cells were incubated with fluorescent secondary antibodies (Invitrogen) in PBS containing 1% BSA for 30 min. After being washed with PBS, cells were stained with 20 μg/ml propidium iodide (Sigma) in PBS containing 200 μg/ml RNase (Qiagen). All staining steps were performed at room temperature. The samples were analyzed on a FACSCalibur flow cytometer (BD Biosciences). Data were processed with the FlowJo software. The mitotic index was defined as the percentage of cells that had 4N DNA content and were also positive for MPM2 staining. […]

human Mad1 CTD = assay: in vitro pull-down of human Mad1^CTD by Bub1 peptide beads; type: binding; conditions: peptides immobilized on SulfoLink resin, Coomassie
Method: Recombinant bait proteins or bacteria lysates containing bait proteins were incubated with the appropriate affinity beads. Bait-bound beads were then blocked with 2% fat-free milk when necessary before being mixed with 100 µl diluted prey proteins. After incubation, beads were washed and eluted with the SDS loading buffer. The bead-bound proteins were analyzed by Coomassie blue staining or Western blotting. […] In cases that synthesized peptides were used as bait, peptides were immobilized on SulfoLink resin (Thermo Scientific, Waltham, MA) according to the manufacturer’s instructions. The synthetic scBub1 peptides contained residues 449–473 of scBub1, various phospho-residues, and a cysteine at the N-terminus. All synthetic human Bub1 peptides, except the pS459 peptide, contained residue 455–477 of human Bub1, the appropriate phospho-residues, and a cysteine at the N-terminus. The Bub1 pS459 peptide contained residues 439–480, pT452/pS459, and a cysteine at the C-terminus.

[1] = target: T1, C-terminal domain (CTD) of scMad1 (Saccharomyces cerevisiae, UniProt P40957); assay: ITC, scBub1 fragment or phospho-peptides with scMad1 CTD; type: binding; conditions: 20°C, 25 mM HEPES pH 7.5, 150 mM NaCl, scMad1 20 µM in cell, scBub1 phospho-peptide or fragment 300 µM injected, read-out: Kd, dissociation constant
T1 sequence (P40957 633-749 limits assumed): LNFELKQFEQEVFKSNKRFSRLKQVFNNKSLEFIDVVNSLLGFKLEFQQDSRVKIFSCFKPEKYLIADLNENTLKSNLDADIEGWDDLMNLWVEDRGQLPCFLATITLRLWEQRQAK
Method: All isothermal titration calorimetry (ITC) assays were performed with a MicroCal Omega ITC200 titration calorimeter (GE Life Sciences) at 20°C. Recombinant scMad1^CTD protein or scMad1–scMad2 complexes were dialyzed into the HEPES Buffer I (25 mM HEPES, pH 7.5, 150 mM NaCl). Recombinant human Mad1^CTD protein was dialyzed into the HEPES Buffer II (25 mM HEPES, pH 7.5, 50 mM NaCl). For each titration, 300 μl of scMad1 proteins (20 µM) or human Mad1 (50 µM) were added to the calorimeter cell. The scBub1 phospho-peptides or purified scMps1-phosphorylated scBub1_449–530 fragment (300 µM) in the HEPES Buffer I or the human Bub1 phospho-peptides (500 µM) in the HEPES Buffer II were injected with an injection syringe in 19 2-μl portions. The raw data were processed and fitted with the NITPIC software package ([Keller et al., 2012]).

HeLa Tet-On cells = assay: mitotic index by flow cytometry, Bub1-depleted cells; type: cell-based, human; conditions: partial Bub1 depletion, BI 2536 1 µM, nocodazole; n = 3; as shown previously (Jia et al., 2016)
Method: HeLa Tet-On cells were initially purchased from Clontech (Mountain View, CA), and were cultured in Dulbecco’s Modified Eagle Medium (DMEM, Invitrogen, Carlsbad, CA) supplemented with 10% fetal bovine serum and 2 mM L-glutamine. The cells were authenticated by genome sequencing and metaphase chromosome spread, and were routinely checked by 4',6-diamidino-2-phenylindole (DAPI) staining to ascertain that they were free of mycoplasma contamination. For G1/S synchronization, cells were treated with 2 mM thymidine (Sigma, St. Louis, MO) for 14–16 hr. For mitotic arrest, cells were treated with 330 nM or 1 µM nocodazole (Sigma) or 100 nM taxol (Sigma) for 12–14 hr. Other chemicals used in this study were: RO3306 (Sigma) at 20 µM, BI 2536 (Selleck Chemicals, Houston, TX) at 1 µM, MG132 (Selleck Chemicals) at 10 µM, okadaic acid (LC lab, Woburn, MA) at 500 nM, and reversine (Cayman Chemical, Ann Arbor, MI) at 1 µM.
For RNAi experiments, cells were transfected with siRNA oligonucleotides (Dharmacon, Lafayette, CO) using Lipofectamine RNAiMAX (Invitrogen) and harvested at 24–72 hr after transfection. The sequences of the siRNAs were (from 5’ to 3’): siBub1-c, […] […]
Cells were synchronized at G1/S with thymidine and released into fresh medium containing 330 nM nocodazole for 13 hr before being harvested. […] The samples were analyzed on a FACSCalibur flow cytometer (BD Biosciences). […]

Compound: Mad2^Di: dimeric Mad2 separated by ion exchange chromatography
spontaneous functional MCC formation and APC/C^Cdc20 inhibition (in words) (APC/C^Cdc20): allowed the spontaneous formation of functional MCC that inhibited securin ubiquitination by APC/C^Cdc20

Compound: Mad2^Mono: monomeric Mad2, mostly the inactive O-Mad2
spontaneous functional MCC formation and APC/C^Cdc20 inhibition (in words) (APC/C^Cdc20): only showed weak APC/C^Cdc20 inhibition at very high doses

phosphorylation of Bub1^ΔK–Bub3 at S459 (in words) (Bub1^ΔK–Bub3): strongly phosphorylated at S459
Compound: Cdk1: recombinant GST-Cdk1 (T14A/Y15F) co-expressed with His6-Cyclin B1 [reference compound]

Compound: T716A: Mis12–Mad1 with T716A mutation
mitotic arrest by Mis12–Mad1 fusion protein (in words) (HeLa cells): abrogated the function of Mis12–Mad1 more strongly than simultaneously mutating the 13 sites outside of the CTD

Compound: pS459-pT461-pT464 peptide: triply phosphorylated synthetic human Bub1 peptide, residues 455–477, N-terminal cysteine (CKVQP[pS]P[pT]VH[pT]KEALGFIMNMFQA; UniProt O43683 455-477, looked up, fragment)
binding to human Mad1 CTD (in words) (human Mad1 CTD): bound more weakly to Mad1 than the pS459-pT461 peptide

Kd [1]: 1600 nM
Compound: CC[C@H](C)[C@H](NC(=O)[C@H](C)NC(=O)[C@H](CC(=O)O)NC(=O)[C@H](CCCCN)NC(=O)[C@H](CO)NC(=O)[C@H](Cc1ccccc1)NC(=O)[C@H](C)NC(=O)[C@@H](NC(=O)[C@@H](NC(=O)[C@@H](NC(=O)[C@@H]1CCCN1C(=O)[C@H](CO)NC(=O)[C@H](CCCNC(=N)N)NC(=O)[C@H](CO)NC(=O)[C@@H](N)CS)[C@@H](C)O)C(C)C)[C@@H](C)OP(=O)(O)O)C(=O)N[C@@H](CC(N)=O)C(=O)N[C@@H](CCC(=O)O)C(=O)N[C@H](C(=O)N[C@@H](Cc1ccccc1)C(=O)N[C@@H](CO)C(=O)N[C@@H](CCSC)C(=O)N[C@@H](Cc1ccccc1)C(=O)N[C@@H](CC(N)=O)C(=O)N[C@@H](CCC(N)=O)C(=O)N[C@@H](Cc1c[nH]cn1)C(=O)N[C@@H](Cc1ccc(O)cc1)C(=O)O)C(C)C [scBub1 pT455 peptide] (H-CSRSPTV[pT]AFSKDAINEVFSMFNQHY-OH)

Kd [1]: 1600 nM
Compound: CC[C@H](C)[C@H](NC(=O)[C@H](C)NC(=O)[C@H](CC(=O)O)NC(=O)[C@H](CCCCN)NC(=O)[C@H](CO)NC(=O)[C@H](Cc1ccccc1)NC(=O)[C@H](C)NC(=O)[C@@H](NC(=O)[C@@H](NC(=O)[C@@H](NC(=O)[C@@H]1CCCN1C(=O)[C@H](CO)NC(=O)[C@H](CCCNC(=N)N)NC(=O)[C@H](CO)NC(=O)[C@@H](N)CS)[C@@H](C)OP(=O)(O)O)C(C)C)[C@@H](C)OP(=O)(O)O)C(=O)N[C@@H](CC(N)=O)C(=O)N[C@@H](CCC(=O)O)C(=O)N[C@H](C(=O)N[C@@H](Cc1ccccc1)C(=O)N[C@@H](CO)C(=O)N[C@@H](CCSC)C(=O)N[C@@H](Cc1ccccc1)C(=O)N[C@@H](CC(N)=O)C(=O)N[C@@H](CCC(N)=O)C(=O)N[C@@H](Cc1c[nH]cn1)C(=O)N[C@@H](Cc1ccc(O)cc1)C(=O)O)C(C)C [scBub1 pT453-pT455 peptide] (H-CSRSP[pT]V[pT]AFSKDAINEVFSMFNQHY-OH)

Compound: CC[C@@H]1C(=O)N(C)c2cnc(Nc3ccc(C(=O)NC4CCN(C)CC4)cc3OC)nc2N1C1CCCC1 [BI 2536, reference compound]
effect of Plk1 inhibition with partial depletion of Bub1 on the spindle checkpoint (in words) (HeLa Tet-On cells): synergistically inactivated the spindle checkpoint and reduced nocodazole-triggered mitotic arrest
